Reference: US11786532B2, “2-pyridones and methods of use thereof” (ALIGOS THERAPEUTICS, INC., priority 2020, dated 2023)

Each compound was assayed against T1, human thyroid receptor beta ligand-binding domain (THR-beta) (Homo sapiens, UniProt P10828) (assay: THR Biochemical Assay (Assay 1): TR-FRET thyroid receptor beta coactivator assay). Settings: TR-FRET SRC2-2 coactivator recruitment, GST-tagged THR-beta LBD 1 nM, 1 hr at rt; read-out: Assay 1 (EC50, THR-beta agonist activity).
T1 sequence (P10828 217-461 limits assumed): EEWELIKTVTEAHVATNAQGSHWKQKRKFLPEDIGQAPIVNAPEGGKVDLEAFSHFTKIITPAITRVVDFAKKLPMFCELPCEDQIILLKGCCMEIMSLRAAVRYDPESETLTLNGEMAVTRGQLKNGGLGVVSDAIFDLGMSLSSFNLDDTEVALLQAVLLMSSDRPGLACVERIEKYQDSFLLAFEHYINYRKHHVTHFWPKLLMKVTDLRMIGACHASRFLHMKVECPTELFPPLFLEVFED
Excerpt: THR Biochemical Assay (Assay 1)
The TR-FRET thyroid receptor beta coactivator assay is to be used. The assay uses a terbium-labeled anti-GST antibody, a glutathione-S-transferase (GST) tagged human thyroid receptor, beta or alpha, ligand-binding domain (LBD), and a fluorescein labeled SRC2-2 coactivator peptide. The antibody interacts with the LBD, where the agonist will also bind, resulting in increased affinity for the SRC2-2 coactivator peptide causing energy transfer of the acceptor fluorophore and a FRET emission shift from 495 to 520 nm. The energy transfer is detected as an increase in the fluorescence emission of the fluorescein acceptor, and a decrease in the fluorescence emission of the terbium donor. The assay is to be performed in a 384-well black plate in a final volume of 20 μL. Serial dilution of various test agonists will be performed in DMSO (1% final DMSO concentration) and added to the test plate. Thyroid receptor beta LBD will usually be added to the plate at a final concentration of 1 nM, followed by the mixture of the fluorescein labeled SRC2-2 coactivator peptide, and the terbium-labeled anti-GST antibody at final concentrations of 200 nM and 2 nM respectively. The assay will often be incubated for 1 hr at rt protected from light. The TR-FRET will then be measured on a Victor multilabel reader (Perkin Elmer) using an excitation wavelength of 340 nm with emission filters of 495 nm and 520 nm. The assay will be quantified by expressing a ratio (520:495) of the intensities, and the resulting activation curves; EC50 values are to be generated using a sigmoidal dose response (variable slope) equation in GraphPad™ Prism 8.0.

First: CC(C)n1cc(Oc2c(Cl)cc(-n3nc(N)c(=O)[nH]c3=O)cc2Cl)ccc1=O [Compound 8, 6-amino-2-(3,5-dichloro-4-((1-isopropyl-6-oxo-1,6-dihydropyridin-3-yl)oxy)phenyl)-1,2,4-triazine-3,5(2H,4H)-dione]
Second: CC(C)n1cc(Oc2c(Cl)cc(-n3nc(C#N)c(=O)[nH]c3=O)cc2Cl)ccc1=O [Compound 7, 2-(3,5-dichloro-4-((1-isopropyl-6-oxo-1,6-dihydropyridin-3-yl)oxy)phenyl)-3,5-dioxo-2,3,4,5-tetrahydro-1,2,4-triazine-6-carbonitrile]
The EC50 of the first is higher: 50 to 250 nM for the first, less than 50 nM for the second. The second is the more potent here.

First: Nc1nn(-c2cc(Cl)c(Oc3c[nH]c(=O)c(C(=O)NC4CC(F)(F)C4)c3)c(Cl)c2)c(=O)[nH]c1=O [Example 27, 5-(4-(6-Amino-3,5-dioxo-4,5-dihydro-1,2,4-triazin-2(3H)-yl)-2,6-dichlorophenoxy)-N-(3,3-difluorocyclobutyl)-2-oxo-1,2-dihydropyridine-3-carboxamide]
Second: Nc1nn(-c2cc(Cl)c(Oc3c[nH]c(=O)c(C4CCC4)c3)c(Cl)c2)c(=O)[nH]c1=O [Example 24, 6-amino-2-(3,5-dichloro-4-((5-cyclobutyl-6-oxo-1,6-dihydropyridin-3-yl)oxy)phenyl)-1,2,4-triazine-3,5(2H,4H)-dione]
The EC50 of the first is higher: 250 to 1000 nM for the first, less than 50 nM for the second. The second is the more potent here.

First: CC(C)n1cc(Oc2c(Cl)cc(-n3nc(N)c(=O)[nH]c3=O)cc2Cl)cc(F)c1=O [Example 22, 6-amino-2-(3,5-dichloro-4-((5-fluoro-1-isopropyl-6-oxo-1,6-dihydropyridin-3-yl)oxy)phenyl)-1,2,4-triazine-3,5(2H,4H)-dione]
Second: Cc1cc(Oc2c(Cl)cc(-n3nc(N)c(=O)[nH]c3=O)cc2Cl)cn(C(C)C)c1=O [Example 19, 6-amino-2-(3,5-dichloro-4-((1-isopropyl-5-methyl-6-oxo-1,6-dihydropyridin-3-yl)oxy)phenyl)-1,2,4-triazine-3,5(2H,4H)-dione]
The EC50 of the first is higher: 50 to 250 nM for the first, less than 50 nM for the second. The second is the more potent here.

Compared with `Nc1nn(-c2cc(Cl)c(Oc3ccc(=O)n(C4CCC4)c3)c(Cl)c2)c(=O)[nH]c1=O` [Example 30, 6-amino-2-(3,5-dichloro-4-((1-cyclobutyl-6-oxo-1,6-dihydropyridin-3-yl)oxy)phenyl)-1,2,4-triazine-3,5(2H,4H)-dione], `Nc1nn(-c2cc(Cl)c(Oc3ccc(=O)n(C4CC4)c3)c(Cl)c2)c(=O)[nH]c1=O` [Example 31, 6-amino-2-(3,5-dichloro-4-((1-cyclopropyl-6-oxo-1,6-dihydropyridin-3-yl)oxy)phenyl)-1,2,4-triazine-3,5(2H,4H)-dione] is higher in EC50: less than 50 nM for the first, 50 to 250 nM for the second. The first is the more potent here.

First: CC(C)c1cc(Oc2c(Cl)cc(-c3nn(C)c(=O)[nH]c3=O)cc2Cl)c[nH]c1=O [Compound 10, 6-(3,5-dichloro-4-((5-isopropyl-6-oxo-1,6-dihydropyridin-3-yl)oxy)phenyl)-2-methyl-1,2,4-triazine-3,5(2H,4H)-dione]
Second: CC(C)c1cc(Oc2c(Cl)cc(-n3nc(N)c(=O)[nH]c3=O)cc2Cl)c[nH]c1=O [Compound 1, 6-amino-2-(3,5-dichloro-4-((5-isopropyl-6-oxo-1,6-dihydropyridin-3-yl)oxy)phenyl)-1,2,4-triazine-3,5(2H,4H)-dione]
The EC50 of the first is higher: 50 to 250 nM for the first, less than 50 nM for the second. The second is the more potent here.

First: CC(C)c1cc(Oc2c(Cl)cc(-n3ncc(=O)[nH]c3=O)cc2Cl)c[nH]c1=O [Compound 3, 2-(3,5-dichloro-4-((5-isopropyl-6-oxo-1,6-dihydropyridin-3-yl)oxy)phenyl)-1,2,4-triazine-3,5(2H,4H)-dione]
Second: CC(C)c1cc(Oc2c(Cl)cc(-n3nc(N)c(=O)[nH]c3=O)cc2Cl)cn(C)c1=O [Example 14, 6-amino-2-(3,5-dichloro-4-((5-isopropyl-1-methyl-6-oxo-1,6-dihydropyridin-3-yl)oxy)phenyl)-1,2,4-triazine-3,5(2H,4H)-dione]
The EC50 of the first is higher: 50 to 250 nM for the first, less than 50 nM for the second. The second is the more potent here.

Compared with `CC(C)n1cc(Oc2c(Cl)cc(NC(=O)c3noc(=O)[nH]3)cc2Cl)ccc1=O` [Compound 6, N-(3,5-dichloro-4-((1-isopropyl-6-oxo-1,6-dihydropyridin-3-yl)oxy)phenyl)-5-oxo-4,5-dihydro-1,2,4-oxadiazole-3-carboxamide], `CC(C)c1cc(Oc2c(Cl)cc(NC(=O)c3noc(=O)[nH]3)cc2Cl)c[nH]c1=O` [Compound 5, N-(3,5-dichloro-4-((5-isopropyl-6-oxo-1,6-dihydropyridin-3-yl)oxy)phenyl)-5-oxo-4,5-dihydro-1,2,4-oxadiazole-3-carboxamide] is lower in EC50: 50 to 250 nM for the first, less than 50 nM for the second.

Compared with `CC(n1cc(Oc2c(Cl)cc(-n3nc(N)c(=O)[nH]c3=O)cc2Cl)ccc1=O)C(F)(F)F` (stereo not drawn) [Example 32, 6-amino-2-(3,5-dichloro-4-((6-oxo-1-(1,1,1-trifluoropropan-2-yl)-1,6-dihydropyridin-3-yl)oxy)phenyl)-1,2,4-triazine-3,5(2H,4H)-dione], `CC1CCc2c(Oc3c(Cl)cc(-n4nc(N)c(=O)[nH]c4=O)cc3Cl)ccc(=O)n21` (single isomer, unassigned) [Example 37, 6-amino-2-(3,5-dichloro-4-((3-methyl-5-oxo-1,2,3,5-tetrahydroindolizin-8-yl)oxy)phenyl)-1,2,4-triazine-3,5(2H,4H)-dione] is lower in EC50: 50 to 250 nM for the first, less than 50 nM for the second. The second is the more potent here.

First: Cc1cc(-n2nc(N)c(=O)[nH]c2=O)cc(C)c1Cc1c[nH]c(=O)c(C(C)C)c1 [Example 33, 6-amino-2-(4-((5-isopropyl-6-oxo-1,6-dihydropyridin-3-yl)methyl)-3,5-dimethylphenyl)-1,2,4-triazine-3,5(2H,4H)-dione]
Second: Cc1cc(-n2nc(N)c(=O)[nH]c2=O)cc(C)c1Oc1c[nH]c(=O)c(C(C)C)c1 [Compound 9, 6-amino-2-(4-((5-isopropyl-6-oxo-1,6-dihydropyridin-3-yl)oxy)-3,5-dimethylphenyl)-1,2,4-triazine-3,5(2H,4H)-dione]
The EC50 of the first is higher: 250 to 1000 nM for the first, 50 to 250 nM for the second.

Compared with `CC(C)c1cc(Oc2c(Cl)cc(NC(=O)C(=O)O)cc2Cl)c[nH]c1=O` [Compound 4, 2-((3,5-dichloro-4-((5-isopropyl-6-oxo-1,6-dihydropyridin-3-yl)oxy)phenyl)amino)-2-oxoacetic acid], `CNC(=O)c1cc(Oc2c(Cl)cc(NC(=O)c3noc(=O)[nH]3)cc2Cl)c[nH]c1=O` [Example 28, N-(3,5-dichloro-4-((5-(methylcarbamoyl)-6-oxo-1,6-dihydropyridin-3-yl)oxy)phenyl)-5-oxo-4,5-dihydro-1,2,4-oxadiazole-3-carboxamide] is higher in EC50: 50 to 250 nM for the first, 1000 to 25000 nM for the second. The first is the more potent here.

`CC1CCc2c(Oc3c(Cl)cc(-n4nc(N)c(=O)[nH]c4=O)cc3Cl)ccc(=O)n21` (stereo not drawn) [Example 36, 6-amino-2-(3,5-dichloro-4-((3-methyl-5-oxo-1,2,3,5-tetrahydroindolizin-8-yl)oxy)phenyl)-1,2,4-triazine-3,5(2H,4H)-dione] and `CC1CCc2c(Oc3c(Cl)cc(-n4nc(C#N)c(=O)[nH]c4=O)cc3Cl)ccc(=O)n21` (stereo not drawn) [Example 35, 2-(3,5-dichloro-4-((3-methyl-5-oxo-1,2,3,5-tetrahydroindolizin-8-yl)oxy)phenyl)-3,5-dioxo-2,3,4,5-tetrahydro-1,2,4-triazine-6-carbonitrile] cannot be ordered by EC50: less than 50 nM for the first, less than 50 nM for the second.

First: CN(C)c1cc(Oc2c(Cl)cc(-n3nc(N)c(=O)[nH]c3=O)cc2Cl)c[nH]c1=O [Compound 13, 6-amino-2-(3,5-dichloro-4-((5-(dimethylamino)-6-oxo-1,6-dihydropyridin-3-yl)oxy)phenyl)-1,2,4-triazine-3,5(2H,4H)-dione]
Second: Cc1c(Oc2c(Cl)cc(-n3nc(N)c(=O)[nH]c3=O)cc2Cl)c[nH]c(=O)c1C(C)C [Example 18, 6-amino-2-(3,5-dichloro-4-((5-isopropyl-4-methyl-6-oxo-1,6-dihydropyridin-3-yl)oxy)phenyl)-1,2,4-triazine-3,5(2H,4H)-dione]
The EC50 of the first is higher: 250 to 1000 nM for the first, less than 50 nM for the second.

`CC1CCc2c(Oc3c(Cl)cc(-n4nc(C#N)c(=O)[nH]c4=O)cc3Cl)c[nH]c(=O)c21` (stereo not drawn) [Example 34, 2-(3,5-Dichloro-4-((7-methyl-1-oxo-2,5,6,7-tetrahydro-1H-cyclopenta[c]pyridin-4-yl)oxy)phenyl)-3,5-dioxo-2,3,4,5-tetrahydro-1,2,4-triazine-6-carbonitrile] and `CC1CCc2c(Oc3c(Cl)cc(-n4nc(N)c(=O)[nH]c4=O)cc3Cl)c[nH]c(=O)c21` (stereo not drawn) [Example 15, 6-amino-2-[3,5-dichloro-4-[(7-methyl-1-oxo-2,5,6,7-tetrahydrocyclopenta[c]pyridin-4-yl)oxy]phenyl]-1,2,4-triazine-3,5-dione] fall in the same range of EC50: 250 to 1000 nM for the first, 250 to 1000 nM for the second.

`CC1CCc2c(Oc3c(Cl)cc(-n4nc(N)c(=O)[nH]c4=O)cc3Cl)ccc(=O)n21` (single isomer, unassigned) [Example 38, 6-amino-2-(3,5-dichloro-4-((3-methyl-5-oxo-1,2,3,5-tetrahydroindolizin-8-yl)oxy)phenyl)-1,2,4-triazine-3,5(2H,4H)-dione] was tested, and the EC50 was 50 to 250 nM.
